Values of other authors in US10294298B2, “Human PAC1 antibodies” (AMGEN INC., priority 2013, dated 2019).

Tests used:
VPAC2 = target: T1, VPAC2 (Homo sapiens, UniProt P41587); settings: receptor agonist; background table
T1 sequence (P41587 24-438): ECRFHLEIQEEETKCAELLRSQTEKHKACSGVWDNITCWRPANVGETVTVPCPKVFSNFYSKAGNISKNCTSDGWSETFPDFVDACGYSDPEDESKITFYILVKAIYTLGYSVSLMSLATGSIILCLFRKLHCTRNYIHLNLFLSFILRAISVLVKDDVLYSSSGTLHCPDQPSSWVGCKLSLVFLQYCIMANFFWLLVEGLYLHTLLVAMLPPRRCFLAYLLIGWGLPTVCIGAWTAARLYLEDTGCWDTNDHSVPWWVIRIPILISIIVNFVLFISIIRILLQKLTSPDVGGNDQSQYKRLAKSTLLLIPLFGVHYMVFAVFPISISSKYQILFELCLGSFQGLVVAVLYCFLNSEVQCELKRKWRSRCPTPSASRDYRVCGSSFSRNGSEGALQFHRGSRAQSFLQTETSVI

VPAC1 = target: T2, VPAC1 (Homo sapiens, UniProt P32241); settings: receptor agonist; background table
T2 sequence (P32241 31-457): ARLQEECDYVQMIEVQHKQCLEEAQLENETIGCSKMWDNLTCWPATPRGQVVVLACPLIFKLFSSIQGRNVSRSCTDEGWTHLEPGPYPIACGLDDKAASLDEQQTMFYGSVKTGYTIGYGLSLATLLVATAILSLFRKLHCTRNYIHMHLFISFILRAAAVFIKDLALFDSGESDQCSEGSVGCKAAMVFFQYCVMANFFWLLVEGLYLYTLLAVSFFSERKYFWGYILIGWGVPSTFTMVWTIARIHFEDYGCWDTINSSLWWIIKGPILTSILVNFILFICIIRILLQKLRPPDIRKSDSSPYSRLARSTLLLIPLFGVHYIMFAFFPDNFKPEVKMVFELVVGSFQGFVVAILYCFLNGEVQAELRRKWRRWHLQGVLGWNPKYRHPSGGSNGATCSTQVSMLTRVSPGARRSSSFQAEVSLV

Maxadilan
EC50 (VPAC2): > 1000 nM | EC50 (VPAC1): > 1000 nM
